Experimental data: ChEMBL document CHEMBL3102800, “Discovery and optimization of N-(3-(1,3-dioxo-2,3-dihydro-1H-pyrrolo[3,4-c]pyridin-4-yloxy)phenyl)benzenesulfonamides as novel GPR119 agonists” (Bioorg Med Chem Lett, 2014); call rule not given here

Legend:
[1] = target: T1, Glucose-dependent insulinotropic receptor (Homo sapiens, UniProt Q8TDV5); test: Agonist activity at human GPR119 expressed in HEK293 cells assessed as cAMP accumulation after 30 mins; assay type: functional, cell-based
T1 sequence (Q8TDV5 whole entry): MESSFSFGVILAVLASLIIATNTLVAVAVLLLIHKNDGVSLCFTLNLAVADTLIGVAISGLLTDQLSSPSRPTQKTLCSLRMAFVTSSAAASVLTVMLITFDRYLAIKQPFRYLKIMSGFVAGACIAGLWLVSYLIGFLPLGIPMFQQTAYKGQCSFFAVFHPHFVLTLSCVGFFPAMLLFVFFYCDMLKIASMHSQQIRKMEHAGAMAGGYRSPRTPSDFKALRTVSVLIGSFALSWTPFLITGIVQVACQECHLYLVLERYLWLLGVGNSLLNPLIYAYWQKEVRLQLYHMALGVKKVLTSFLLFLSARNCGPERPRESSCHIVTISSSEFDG

[2] = Intrinsic clearance in rat liver microsomes; assay type: ADME; details: read-out: CLH
[3] = target: T2, Glucose-dependent insulinotropic receptor (Homo sapiens) (UniProt Q8TDV5); test: Agonist activity at human GPR119 expressed in HEK293 cells assessed as cAMP accumulation after 30 mins relative to isopropyl 4-(1-(4-(methylsulfonyl)phenyl)-1H-pyrazolo[3,4-d]pyrimidin-4-yloxy)piperidine-1-carboxylate; assay type: functional, cell-based
T2 sequence (whole entry): T1 sequence (Q8TDV5 whole entry)

[4] = Intrinsic clearance in human liver microsomes; assay type: ADME; details: read-out: CLH
[5] = Clearance in iv dosed rat; assay type: ADME, organism-based; details: in vivo
[6] = Metabolic stability in rat liver microsomes assessed as compound remaining at 1 uM after 30 mins; assay type: ADME; details: read-out: Stability
[7] = target: T3, Glucose-dependent insulinotropic receptor (Rattus norvegicus, UniProt Q7TQN8); test: Agonist activity at rat GPR119 assessed as cAMP accumulation; assay type: functional
T3 sequence (Q7TQN8 whole entry): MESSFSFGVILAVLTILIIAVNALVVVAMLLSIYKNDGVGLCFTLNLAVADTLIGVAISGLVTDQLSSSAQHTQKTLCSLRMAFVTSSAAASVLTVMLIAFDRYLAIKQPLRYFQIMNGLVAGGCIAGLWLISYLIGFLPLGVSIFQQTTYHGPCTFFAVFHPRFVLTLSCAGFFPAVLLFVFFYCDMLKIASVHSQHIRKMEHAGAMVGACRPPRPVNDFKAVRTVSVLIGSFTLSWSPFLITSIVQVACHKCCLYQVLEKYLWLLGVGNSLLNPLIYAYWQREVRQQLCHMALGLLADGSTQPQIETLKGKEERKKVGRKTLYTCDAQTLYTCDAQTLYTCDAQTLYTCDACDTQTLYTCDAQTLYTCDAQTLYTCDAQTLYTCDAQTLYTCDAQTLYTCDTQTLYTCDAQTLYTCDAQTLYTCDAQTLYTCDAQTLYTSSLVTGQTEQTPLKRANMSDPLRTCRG

[8] = Half life in rat at 0.5 mg/kg, iv; assay type: ADME, organism-based; set-up: dose 0.5 mg/kg, route intravenous; details: in vivo
[9] = Metabolic stability in human liver microsomes assessed as compound remaining at 1 uM after 30 mins; assay type: ADME; details: read-out: Stability
[10] = Inhibition of Cytochrome P450 (unknown origin); assay type: ADME; details: human
[11] = Clearance in rat at 0.5 mg/kg, iv; assay type: ADME, organism-based; set-up: dose 0.5 mg/kg, route intravenous; details: in vivo
[12] = Oral bioavailability in cynomolgus monkey at 2 mg/kg; assay type: ADME, organism-based, Macaca fascicularis; details: in vivo
Bile salt export pump = Bile salt export pump (Homo sapiens, UniProt O95342); test: Binding affinity to BSEP (unknown origin)
[13] = target: T4, G-protein coupled receptor 119 (Macaca fascicularis, UniProt G7Q3P2); test: Agonist activity at cynomolgus monkey GPR119 assessed as cAMP accumulation; assay type: functional
T4 sequence (G7Q3P2 whole entry): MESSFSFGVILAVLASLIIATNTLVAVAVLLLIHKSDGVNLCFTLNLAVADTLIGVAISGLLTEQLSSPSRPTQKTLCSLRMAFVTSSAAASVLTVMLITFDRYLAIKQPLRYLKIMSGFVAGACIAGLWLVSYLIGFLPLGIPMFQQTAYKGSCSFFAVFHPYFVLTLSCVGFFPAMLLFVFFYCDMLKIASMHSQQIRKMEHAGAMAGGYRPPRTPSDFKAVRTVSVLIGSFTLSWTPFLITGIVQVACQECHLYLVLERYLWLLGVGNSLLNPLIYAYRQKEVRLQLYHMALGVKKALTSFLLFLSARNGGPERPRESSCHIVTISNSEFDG

[14] = Clearance in cynomolgus monkey at 0.5 mg/kg, iv; assay type: ADME, organism-based, Macaca fascicularis; set-up: dose 0.5 mg/kg, route intravenous; details: in vivo
[15] = Plasma protein binding in cynomolgus monkey; assay type: ADME, cell-free, Macaca fascicularis; details: read-out: PPB
[16] = Plasma protein binding in human; assay type: ADME, cell-free; details: read-out: PPB
[17] = Volume of distribution at steady state in cynomolgus monkey at 0.5 mg/kg, iv; assay type: ADME, organism-based, Macaca fascicularis; set-up: dose 0.5 mg/kg, route intravenous; details: in vivo, read-out: Vdss
[18] = Oral bioavailability in rat at 2 mg/kg; assay type: ADME, organism-based; details: in vivo
[19] = Volume of distribution at steady state in rat at 0.5 mg/kg, iv; assay type: ADME, organism-based; set-up: dose 0.5 mg/kg, route intravenous; details: in vivo, read-out: Vdss
[20] = target: T5, G-protein coupled receptor 119 (Macaca fascicularis) (UniProt G7Q3P2); test: Agonist activity at cynomolgus monkey GPR119 assessed as cAMP accumulation relative to control; assay type: functional
T5 sequence (whole entry): T4 sequence (G7Q3P2 whole entry)

[21] = target: T6, Nuclear receptor subfamily 1 group I member 2 (Homo sapiens, UniProt O75469); test: Activation of human PXR
T6 sequence (O75469 whole entry): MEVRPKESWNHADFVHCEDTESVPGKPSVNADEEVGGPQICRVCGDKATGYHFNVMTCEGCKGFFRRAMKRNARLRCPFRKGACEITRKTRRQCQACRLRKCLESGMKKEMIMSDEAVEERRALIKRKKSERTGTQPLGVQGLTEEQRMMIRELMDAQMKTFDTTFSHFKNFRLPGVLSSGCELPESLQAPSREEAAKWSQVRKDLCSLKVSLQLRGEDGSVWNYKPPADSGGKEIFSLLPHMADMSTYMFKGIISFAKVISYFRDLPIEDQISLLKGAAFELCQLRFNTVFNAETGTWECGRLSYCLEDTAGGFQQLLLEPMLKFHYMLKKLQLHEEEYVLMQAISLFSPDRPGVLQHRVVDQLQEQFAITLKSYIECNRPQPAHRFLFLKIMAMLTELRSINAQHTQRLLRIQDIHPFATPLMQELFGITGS

[22] = Half life in cynomolgus monkey at 0.5 mg/kg, iv; assay type: ADME, organism-based, Macaca fascicularis; set-up: dose 0.5 mg/kg, route intravenous; details: in vivo
[23] = Intrinsic clearance in human liver microsomes at 1 uM after 30 mins; assay type: ADME; details: read-out: CLH
[24] = target: T7, Glucose-dependent insulinotropic receptor (Mus musculus, UniProt Q7TQP3); test: Agonist activity at mouse GPR119 assessed as cAMP accumulation; assay type: functional
T7 sequence (Q7TQP3 whole entry): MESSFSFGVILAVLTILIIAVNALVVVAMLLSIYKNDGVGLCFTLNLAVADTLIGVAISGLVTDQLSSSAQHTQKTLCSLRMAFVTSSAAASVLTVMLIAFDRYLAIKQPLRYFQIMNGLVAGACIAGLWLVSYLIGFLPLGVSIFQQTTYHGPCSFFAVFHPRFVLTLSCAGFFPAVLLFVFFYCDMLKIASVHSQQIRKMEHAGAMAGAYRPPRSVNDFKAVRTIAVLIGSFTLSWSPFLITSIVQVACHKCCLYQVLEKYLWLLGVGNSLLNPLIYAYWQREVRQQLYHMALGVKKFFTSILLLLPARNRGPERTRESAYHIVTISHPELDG

Bile salt export pump, sequence (O95342 whole entry): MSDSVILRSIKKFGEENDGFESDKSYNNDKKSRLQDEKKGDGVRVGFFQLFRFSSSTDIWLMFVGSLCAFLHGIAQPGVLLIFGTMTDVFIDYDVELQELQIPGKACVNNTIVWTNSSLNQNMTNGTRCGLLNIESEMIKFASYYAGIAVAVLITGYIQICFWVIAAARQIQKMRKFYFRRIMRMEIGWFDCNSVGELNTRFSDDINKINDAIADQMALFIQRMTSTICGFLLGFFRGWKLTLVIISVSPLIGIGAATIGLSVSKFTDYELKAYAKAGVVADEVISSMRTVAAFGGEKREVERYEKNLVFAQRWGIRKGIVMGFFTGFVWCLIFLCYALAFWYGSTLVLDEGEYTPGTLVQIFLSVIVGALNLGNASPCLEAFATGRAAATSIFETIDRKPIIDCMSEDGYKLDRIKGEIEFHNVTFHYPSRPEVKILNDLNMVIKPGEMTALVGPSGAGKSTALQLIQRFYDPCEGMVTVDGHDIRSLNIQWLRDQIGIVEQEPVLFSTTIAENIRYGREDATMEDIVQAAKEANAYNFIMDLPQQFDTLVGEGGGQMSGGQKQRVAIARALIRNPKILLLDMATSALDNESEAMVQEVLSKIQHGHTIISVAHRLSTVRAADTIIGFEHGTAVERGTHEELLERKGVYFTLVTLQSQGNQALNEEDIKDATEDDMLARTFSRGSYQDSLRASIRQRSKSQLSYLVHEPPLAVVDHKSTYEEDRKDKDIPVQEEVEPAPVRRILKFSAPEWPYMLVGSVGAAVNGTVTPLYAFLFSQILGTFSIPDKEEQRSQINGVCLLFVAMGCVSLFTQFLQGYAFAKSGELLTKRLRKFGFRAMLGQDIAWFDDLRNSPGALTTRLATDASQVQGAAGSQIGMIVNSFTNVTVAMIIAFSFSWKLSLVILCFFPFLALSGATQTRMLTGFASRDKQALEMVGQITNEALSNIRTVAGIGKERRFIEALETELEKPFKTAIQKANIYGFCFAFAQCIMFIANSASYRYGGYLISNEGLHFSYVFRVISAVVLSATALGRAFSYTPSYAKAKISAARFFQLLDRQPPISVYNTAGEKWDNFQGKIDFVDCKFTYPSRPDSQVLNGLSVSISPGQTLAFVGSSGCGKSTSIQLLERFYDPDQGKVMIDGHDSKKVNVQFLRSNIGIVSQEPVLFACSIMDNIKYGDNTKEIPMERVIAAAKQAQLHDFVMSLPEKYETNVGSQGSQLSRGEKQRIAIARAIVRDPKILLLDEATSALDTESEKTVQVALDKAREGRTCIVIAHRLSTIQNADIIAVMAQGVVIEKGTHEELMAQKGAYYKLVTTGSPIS

`Cc1cc2c(c(Oc3cc(F)cc(NS(=O)(=O)c4ccc(Cl)cc4)c3)n1)C(=O)N(C(C)C)C2=O` gave an EC50 [1] of 357 nM.
For `Cc1cc2c(c(Oc3cccc(N(C)S(=O)(=O)c4ccc(Cl)cc4)c3)n1)C(=O)N(C(C)C)C2=O`, the EC50 [1] was 11 nM and the microsomal CLint [2] was > 400 µL/min/mg.
`O=C1c2cc(C3CC3)nc(Oc3cccc(NS(=O)(=O)c4ccc(Cl)cc4)c3)c2C(=O)N1C1CC1` showed an EC50 [1] of 45 nM, an Efficacy [3] of 99% and a microsomal CLint [4] of 27 µL/min/mg. It also gave a microsomal CLint [2] of 63 µL/min/mg.
`Cc1cc2c(c(Oc3cccc(NS(=O)(=O)c4ccc(Cl)cc4)c3)n1)C(=O)N(C1CCCC1)C2=O` gave an EC50 [1] of 69 nM and an Efficacy [3] of 95%.
With `Cc1cc2c(c(Oc3cccc(NC(=O)c4ccc(Cl)cc4)c3)n1)C(=O)N(C(C)C)C2=O` the EC50 [1] was > 30000 nM and the microsomal CLint [2] was 40 µL/min/mg.
`CCN1C(=O)c2cc(C)nc(Oc3cccc(NS(=O)(=O)c4ccc(Cl)cc4)c3)c2C1=O` showed an EC50 [1] of 11 nM and an Efficacy [3] of 120%.
With `Cc1cc2c(c(Oc3cccc(NS(=O)(=O)c4ccc(Cl)cc4)c3F)n1)C(=O)N(C(C)C)C2=O` the EC50 [1] was 493 nM.
In the case of `CC(C)OC(=O)N1CCC(Oc2ncnc3c2cnn3-c2ccc(S(C)(=O)=O)cc2)CC1`, the EC50 [1] is reported as 41 nM.
Compound `Cc1cc2c(c(Oc3ccc(C)c(NS(=O)(=O)c4ccc(Cl)cc4)c3)n1)C(=O)N(C(C)C)C2=O` has an EC50 [1] of 9 nM and a microsomal CLint [2] of 131 µL/min/mg.
In the case of `Cc1cc2c(c(Oc3cccc(NS(=O)(=O)c4ccc(Cl)cc4)c3)n1)C(=O)NC2=O`, the EC50 [1] is reported as 121 nM and the Efficacy [3] is reported as 109%.
Compound `Cc1cc2c(c(Oc3cccc(NS(=O)(=O)c4ccc(Cl)cc4)c3)n1)C(=O)N(C1CC1)C2=O` has an EC50 [1] of 15 nM and an Efficacy [3] of 111%.
Compound `COc1cc2c(c(Oc3cccc(NS(=O)(=O)c4ccc(Cl)cc4)c3)n1)C(=O)N(C1CC1)C2=O` has an EC50 [1] of 19 nM and an Efficacy [3] of 97%.
Compound `Cc1cc2c(c(Sc3cccc(NS(=O)(=O)c4ccc(Cl)cc4)c3)n1)C(=O)N(C(C)C)C2=O` has an EC50 [1] of 19 nM and an Efficacy [3] of 76%.
With `Cc1cc2c(c(Oc3cccc(NS(=O)(=O)c4ccc(Cl)cc4)c3)n1)C(=O)N(C(C)C)C2=O` the clearance [5] was 80 mL/min/kg, the EC50 [1] was 13 nM and the Efficacy [3] was 99%. The microsomal CLint [2] was 250 µL/min/mg and the remaining at 0.5 h, 1 µM [6] was 15%.
Work on `Cc1cc2c(c(Oc3cccc(NS(=O)(=O)c4ccc(Cl)cc4)c3)n1)C(=O)N(C)C2=O` yielded an EC50 [1] of 23 nM and an Efficacy [3] of 122%.
`Cc1cc2c(c(Oc3cccc(NS(=O)(=O)c4ccc(Cl)cc4)c3)n1)C(=O)N(c1ccccc1)C2=O` gave an EC50 [1] of 299 nM and an Efficacy [3] of 102%.
For `Cc1cc2c(c(Oc3cc(NS(=O)(=O)c4ccc(Cl)cc4)ccc3F)n1)C(=O)N(C(C)C)C2=O`, the EC50 [7] was 2050 nM, the half-life [8] was 1.5 h and the remaining at 0.5 h, 1 µM [9] was 88%. The “inhibition (INH)” value [10] was “Not Active”, the clearance [11] was 11.8 mL/min/kg and the bioavailability [12] was 29%. For the same compound, the EC50 [1] was 16 nM, the Activity (Bile salt export pump) was “Not Active” and the EC50 [13] was 73 nM. For the same compound, the clearance [14] was 7.5 mL/min/kg, the fraction unbound [15] was < 0.01 and the fraction unbound [16] was < 0.01. The Vd [17] was 1.1 L/kg, the bioavailability [18] was 95% and the Vd [19] was 1.5 L/kg. The Efficacy [20] was 102%, the Activity [21] was “Not Active” and the half-life [22] was 5.6 h. The microsomal CLint at 1 µM [23] was 29 µL/min/mg, the EC50 [24] was 1900 nM and the microsomal CLint [2] was 84 µL/min/mg.
`Cc1cc2c(c(Nc3ccc(C)c(NS(=O)(=O)c4ccc(Cl)cc4)c3)n1)C(=O)N(C(C)C)C2=O` showed an EC50 [1] of 382 nM and an Efficacy [3] of 81%.
`Cc1cc2c(c(Sc3ccc(C)c(NS(=O)(=O)c4ccc(Cl)cc4)c3)n1)C(=O)N(C(C)C)C2=O` showed an EC50 [1] of 224 nM and an Efficacy [3] of 85%.
Work on `Cc1cc2c(c(Oc3cc(NS(=O)(=O)c4ccc(Cl)cc4)ccc3Cl)n1)C(=O)N(C(C)C)C2=O` yielded a clearance [5] of 3.67 mL/min/kg, an EC50 [1] of 33 nM and a microsomal CLint [2] of 29 µL/min/mg.
In the case of `Cc1cc2c(c(Oc3cccc(S(=O)(=O)Nc4ccc(Cl)cc4)c3)n1)C(=O)N(C(C)C)C2=O`, the EC50 [1] is reported as 238 nM.
